How the values were obtained:
ATR/ATRIP = target: T1, ATR/ATRIP (Homo sapiens, UniProt Q13535); assay: ATR/ATRIP kinase assay (TR-FRET, p53 phosphorylation); format: biochemical; settings: Table 1, class symbols; read-out: ATR-ATRIP IC50
T1 construct: human ATR, full length, GenBank ID: NM_001184.3; p53: Sf21 insect cells

[1] = tested on: phosphorylation of Chk1 (Ser 345) in HT29 colon adenocarcinoma cells; assay: pCHK1 cellular assay; format: cell-based; settings: Homo sapiens
Description: Chk1 kinase acts downstream of ATR and has a key role in DNA damage checkpoint control. Activation of Chk1 involves phosphorylation of Ser317 and Ser345 (regarded as the preferential target for phosphorylation/activation by ATR) and occurs in response to blocked DNA replication and certain forms of genotoxic stress. Phosphorylation at Ser 345 serves to localize Chk1 to the nucleus following checkpoint activation.
This assay measures a decrease in phosphorylation of Chk1 (Ser 345) in HT29 colon adenocarcinoma cells following treatment with compound and hydroxyurea (which promotes fork stalling because of dNTP depletion) and using an immunocytochemical procedure and high content imaging.
For the assay HT29 cells are plated in culture medium (DMEM high Glucose (no phenol red), 2 mM Glutamax, 1 mM Pyruvate, 10% FCS into Greiner 384 well plates, black, μclear #781090 (2500 cells/well/30 μl) and incubated for at least 20 hours at 37° C., 10% CO2 and 90% rH. Diluted test compounds (1 nM-30 μM final) and hydroxyurea (3 mM final) are added simultaneously and cells are incubated for 4 h at 37° C. After fixation/prmeabilisation with 100% MeOH (−20° C. cold) and permeabilisation with 0.2% Triton X-100 a complete immunocytochemical procedure is performed using a specific anti-pChk1 antibody (Cell Signaling, #2348BF) and fluorescently labelled secondary antibody (Alexa Fluor® 488 goat anti-rabbit F(ab′)2 fragment, Invitrogen A11070) and parallel nuclear staining for cell counting.
The nuclear localised pChk1 signal is detected on an ImageXpress Ultra confocal high content reader and reported as % positive cells (nuclei).

[2] = HT-29, Table 1, class symbols, hydroxyurea

T1 sequence (Q13535 whole entry): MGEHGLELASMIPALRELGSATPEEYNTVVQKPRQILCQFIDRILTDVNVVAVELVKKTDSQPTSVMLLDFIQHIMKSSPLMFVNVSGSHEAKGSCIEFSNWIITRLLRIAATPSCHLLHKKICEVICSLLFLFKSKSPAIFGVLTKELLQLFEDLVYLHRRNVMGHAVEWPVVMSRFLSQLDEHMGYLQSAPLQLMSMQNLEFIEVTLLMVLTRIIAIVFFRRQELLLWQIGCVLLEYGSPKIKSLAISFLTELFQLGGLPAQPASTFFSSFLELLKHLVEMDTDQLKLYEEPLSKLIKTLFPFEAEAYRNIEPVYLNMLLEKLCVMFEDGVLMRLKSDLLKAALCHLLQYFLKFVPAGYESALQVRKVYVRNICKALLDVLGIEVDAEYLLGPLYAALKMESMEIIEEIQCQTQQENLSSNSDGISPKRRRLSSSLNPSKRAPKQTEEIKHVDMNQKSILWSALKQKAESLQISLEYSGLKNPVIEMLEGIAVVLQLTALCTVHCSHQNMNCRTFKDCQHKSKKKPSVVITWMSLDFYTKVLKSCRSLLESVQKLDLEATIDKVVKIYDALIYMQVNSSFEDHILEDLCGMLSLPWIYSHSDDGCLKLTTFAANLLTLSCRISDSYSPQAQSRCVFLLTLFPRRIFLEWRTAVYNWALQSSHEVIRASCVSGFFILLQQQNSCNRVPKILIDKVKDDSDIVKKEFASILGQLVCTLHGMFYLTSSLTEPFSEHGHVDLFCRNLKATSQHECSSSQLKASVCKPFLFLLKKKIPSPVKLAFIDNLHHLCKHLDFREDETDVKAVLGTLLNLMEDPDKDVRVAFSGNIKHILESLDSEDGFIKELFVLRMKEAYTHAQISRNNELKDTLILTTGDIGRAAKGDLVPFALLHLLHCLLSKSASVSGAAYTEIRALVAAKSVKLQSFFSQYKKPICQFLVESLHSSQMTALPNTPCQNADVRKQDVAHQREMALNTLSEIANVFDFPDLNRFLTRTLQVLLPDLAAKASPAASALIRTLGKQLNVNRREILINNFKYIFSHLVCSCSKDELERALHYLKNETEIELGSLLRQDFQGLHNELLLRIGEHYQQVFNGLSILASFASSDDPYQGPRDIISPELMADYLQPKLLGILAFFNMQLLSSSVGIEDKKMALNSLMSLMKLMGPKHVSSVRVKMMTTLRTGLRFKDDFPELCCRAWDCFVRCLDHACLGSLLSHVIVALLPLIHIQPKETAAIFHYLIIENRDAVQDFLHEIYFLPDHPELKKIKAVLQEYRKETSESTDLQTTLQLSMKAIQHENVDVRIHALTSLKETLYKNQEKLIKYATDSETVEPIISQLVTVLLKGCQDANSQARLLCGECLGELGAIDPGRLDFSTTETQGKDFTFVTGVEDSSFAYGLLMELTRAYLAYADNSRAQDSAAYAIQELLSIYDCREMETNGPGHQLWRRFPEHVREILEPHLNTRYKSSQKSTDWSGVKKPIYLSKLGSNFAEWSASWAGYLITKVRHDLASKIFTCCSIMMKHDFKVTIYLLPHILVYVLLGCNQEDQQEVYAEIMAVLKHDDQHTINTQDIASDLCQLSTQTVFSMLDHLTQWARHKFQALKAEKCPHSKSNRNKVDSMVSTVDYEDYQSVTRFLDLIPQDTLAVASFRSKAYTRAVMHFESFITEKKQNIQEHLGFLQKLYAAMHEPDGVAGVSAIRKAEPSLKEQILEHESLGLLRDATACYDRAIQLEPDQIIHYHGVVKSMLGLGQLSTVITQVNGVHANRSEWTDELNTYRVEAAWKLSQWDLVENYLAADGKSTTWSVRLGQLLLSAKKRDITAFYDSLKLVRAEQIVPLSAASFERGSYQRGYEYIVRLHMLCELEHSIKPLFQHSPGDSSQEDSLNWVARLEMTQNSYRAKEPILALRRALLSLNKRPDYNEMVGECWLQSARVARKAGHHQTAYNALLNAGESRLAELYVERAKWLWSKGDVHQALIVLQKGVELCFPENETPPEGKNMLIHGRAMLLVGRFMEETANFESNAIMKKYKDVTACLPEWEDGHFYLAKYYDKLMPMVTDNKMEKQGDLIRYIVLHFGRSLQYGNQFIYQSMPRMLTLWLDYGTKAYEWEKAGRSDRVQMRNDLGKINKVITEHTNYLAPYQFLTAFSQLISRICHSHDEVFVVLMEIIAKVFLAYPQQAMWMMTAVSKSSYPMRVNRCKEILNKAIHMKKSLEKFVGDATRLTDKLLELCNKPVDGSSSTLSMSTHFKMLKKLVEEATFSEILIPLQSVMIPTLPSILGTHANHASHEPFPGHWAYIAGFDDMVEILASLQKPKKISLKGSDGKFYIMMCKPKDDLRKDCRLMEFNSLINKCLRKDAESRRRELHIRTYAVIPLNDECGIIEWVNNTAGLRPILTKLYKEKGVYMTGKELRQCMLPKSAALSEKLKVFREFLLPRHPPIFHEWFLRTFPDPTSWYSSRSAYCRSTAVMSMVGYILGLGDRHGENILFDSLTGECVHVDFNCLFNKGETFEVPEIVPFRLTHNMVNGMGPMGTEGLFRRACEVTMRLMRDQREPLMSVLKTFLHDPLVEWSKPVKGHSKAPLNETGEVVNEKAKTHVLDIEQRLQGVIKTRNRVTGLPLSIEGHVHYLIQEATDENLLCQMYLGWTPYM
T1 sequence (Q8WXE1 whole entry partner): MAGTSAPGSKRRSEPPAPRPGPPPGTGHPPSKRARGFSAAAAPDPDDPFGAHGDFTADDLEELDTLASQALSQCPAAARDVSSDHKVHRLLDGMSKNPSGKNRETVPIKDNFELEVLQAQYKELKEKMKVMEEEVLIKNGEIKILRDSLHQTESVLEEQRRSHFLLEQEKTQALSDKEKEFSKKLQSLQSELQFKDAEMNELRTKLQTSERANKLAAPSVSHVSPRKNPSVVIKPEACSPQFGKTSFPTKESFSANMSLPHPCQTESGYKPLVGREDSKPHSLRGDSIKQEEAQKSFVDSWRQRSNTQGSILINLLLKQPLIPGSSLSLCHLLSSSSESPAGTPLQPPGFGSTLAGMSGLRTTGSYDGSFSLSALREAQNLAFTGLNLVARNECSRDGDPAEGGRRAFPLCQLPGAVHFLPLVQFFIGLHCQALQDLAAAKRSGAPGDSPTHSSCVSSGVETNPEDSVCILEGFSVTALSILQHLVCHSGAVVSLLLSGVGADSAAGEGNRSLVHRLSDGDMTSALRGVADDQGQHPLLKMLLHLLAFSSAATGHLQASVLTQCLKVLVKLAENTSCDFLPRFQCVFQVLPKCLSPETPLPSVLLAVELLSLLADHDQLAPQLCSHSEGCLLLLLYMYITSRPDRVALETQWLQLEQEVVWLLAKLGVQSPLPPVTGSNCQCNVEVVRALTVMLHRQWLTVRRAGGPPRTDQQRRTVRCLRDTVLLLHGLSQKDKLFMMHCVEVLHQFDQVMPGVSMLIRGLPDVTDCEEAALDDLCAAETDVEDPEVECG

Row | IC50 (ATR/ATRIP) [nM] | IC50 [1, 2] [nM] | IC50 ([1]; HT-29, Table 3, hydroxyurea) [nM] | Structure (SMILES)
1 | < 1 | 10 to 100 | 20 | C[C@@H]1COC[C@H]2COc3c(nc(-c4ccnc5[nH]ccc45)nc3C(C)(C)S(C)(=O)=O)N21 [A13, (6R,8aS)-1-(1-Methanesulfonyl-1-methyl-ethyl)-5-methyl-3-(1H-pyrrolo[2,3-b]pyridin-4-yl)-5,6,8a,9-tetrahydro-8H-7,10-dioxa-2,4,4b-triaza-phenanthrene]
2 | < 1 | 10 to 100 | 36 | C[C@@H]1COC[C@H]2COc3c(nc(-c4c(N)cnc5[nH]ccc45)nc3C(C)(C)S(C)(=O)=O)N21 [A20, 4-[(4bR,8S)-1-(1-Methanesulfonyl-1-methyl-ethyl)-5-methyl-5,6,8a,9-tetrahydro-8H-7,10-dioxa-2,4,4b-triaza-phenanthren-3-yl]-1H-pyrrolo[2,3-b]pyridin-5-ylamine]

Row | Structure (SMILES) | IC50 (ATR/ATRIP) [nM] | IC50 [1, 2] [nM] | IC50 ([1]; HT-29, Table 3, hydroxyurea) [nM]
3 | CNc1cnc2[nH]ccc2c1-c1nc2c(c(C(C)(C)S(C)(=O)=O)n1)OC[C@@H]1COC[C@@H](C)N21 [A1, {4-[(S)-1-(1-Methanesulfonyl-1-methyl-ethyl)-5-(R)-methyl-5,6,8a,9-tetrahydro-8H-7,10-dioxa-2,4,4b-triaza-phenanthren-3-yl]-1H-pyrrolo[2,3-b]pyridin-5-yl}-methyl-amine] | < 1 | < 10 | 6.2
